Patent US10662183B2, “Inhibitors of myocardin-related transcription factor and serum response factor (MRTF/SRF)-mediated gene transcription and methods for use of the same” (THE REGENTS OF THE UNIVERSITY OF MICHIGAN, priority 2014, dated 2020)

System: SRE.L-firefly luciferase reporter (Rho/MKL1 pathway) in PC-3 prostate cancer cells
Experiment: SRE.L-luciferase reporter assay
Assay type: cell-based
Settings: PC-3 cells transfected with Gα12Q231L, SRE.L and pRL-TK reporters, compound 19 hrs
Experimental: Seed PC-3 prostate cancer cells (40,000 cells/well) were grown in 96-well plates in 10% FBS containing DMEM medium. Cells were transiently transfected with the Ga12QL activator of the Rho/MKL1 pathway, along with the SRE.L-firefly luciferase reporter construct for 6 hours. Additionally, cells were co-transfected with the TK-Renilla luciferase reporter as an indicator of non-specific compound effects. Various concentrations of the compounds disclosed herein were added to the 96-well plates. Plates were incubated for 19 hours at 37° C. and 5% C02 in 0.5% FBS containing DMEM medium. Cells were lysed with IX Passive Lysis Buffer (Promega). Plates were incubated for 30 minutes at room temperature. Luminescence counts were read with a Victor2 (Perkin-Elmer) plate reader.
One hour prior to cell lysis for the dual luciferase assay, 10 μl: per well of WST1 reagent (Roche) was added to the 96-well plates. Plates were incubated for 1 hour at 37° C. and 5% CO2. Cell viability was measured by WST1 absorbance at 450 nm with a Victor2 (Perkin-Elmer) plate reader.
Biological activity of the compounds disclosed herein were assessed in the SRE.L luciferase reporter assay. PC-3 prostate cancer cells were co-transfected with 2 ng of the Gα12Q231L expression plasmid along with 50 ng of the SRE.L and 7 ng of the pRL-TK luciferase reporter plasmids, as described in the Materials and Methods section. Cells were treated with 0 (vehicle, DMSO alone), 1, 3, 10, 30, and 100 μM of a compound disclosed herein for 19 hrs after transfection before lysis. Luminescence was determined as described in the Materials and Methods section. Just before cell lysis, the viability of the cells was measured using the WST-1 cell proliferation reagent as described in the Materials and Methods section. Data are expressed as percentage of inhibition (DMSO alone=0%). The experiments were performed three separate times to achieve n=3 in triplicate.

Row | SMILES | IC50 | IC50 (19 h)
1 | O=C(NC1CC(C(=O)Nc2ccc(Cl)cc2)CN(C(=O)c2cccc(-c3ccco3)c2)C1)c1ccccc1 (single isomer, unassigned) [Example E-054, 5-benzamido-N-(4-chlorophenyl)-1-(3-(furan-2-yl)benzoyl) piperidine-3-carboxamide] | 30 µM | 
2 | O=C(NC1CC(C(=O)Nc2ccc(Cl)cc2)CN(C(=O)c2cccc(-c3ccco3)c2)C1)c1ccccc1 (single isomer, unassigned) [Example E-055, 5-benzamido-N-(4-chlorophenyl)-1-(3-(furan-2-yl)benzoyl) piperidine-3-carboxamide] | 2.2 µM | 
3 | CN(Cc1ccccc1)C1CC(C(=O)Nc2ccc(Cl)cc2)CN(C(=O)c2cccc(-c3ccco3)c2)C1 (single isomer, unassigned) [Example E-061, 5-(benzyl(methyl)amino)-N-(4-chlorophenyl)-1-(3-(furan-2-yl)benzoyl)piperidine-3-carboxamide] | 1.9 µM | 
4 | CC(c1ccc(-n2cccn2)cc1)N1CCCC(C(=O)Nc2ccc(Cl)cc2)C1 (single isomer, unassigned) [Example E-102, 1-(1-(4-(1H-pyrazol-1-yl)phenyl)ethyl)-N-(4-chlorophenyl)piperidine-3-carboxamide] |  | 1.4 µM
5 | O=C(c1cccc(-c2ccco2)c1)N1CCCC(F)(C(=O)Nc2ccc(Cl)cc2)C1 (centres unmarked) [Example E-001, N-(4-chlorophenyl)-3-fluoro-1-(3-(furan-2-yl)benzoyl)piperidine-3-carboxamide] |  | 7.3 µM
6 | O=C(Nc1ccc(Cl)cc1)C1CCCN(C(=O)c2cccc(-c3ccc(Cl)o3)c2)C1 (centres unmarked) [Example E-003, 1-(3-(5-chlorofuran-2-yl)benzoyl)-N-(4-chlorophenyl)piperidine-3-carboxamide] |  | 12 µM
7 | O=C(Nc1ccc(Cl)cc1)C1CN(C(=O)c2cccc(-c3ccco3)c2)CCN1C(=O)OCc1ccccc1 (centres unmarked) [Example E-004, benzyl 2-((4-chlorophenyl)carbamoyl)-4-(3-(furan-2-yl)benzoyl)piperazine-1-carboxylate] |  | 1.8 µM
8 | CCC(=O)N1CCN(C(=O)c2cccc(-c3ccco3)c2)CC1C(=O)Nc1ccc(Cl)cc1 (centres unmarked) [Example E-005, N-(4-chlorophenyl)-4-(3-(furan-2-yl)benzoyl)-1-propionylpiperazine-2-carboxamide] |  | 19 µM
9 | CC(=O)N1CCN(C(=O)c2cccc(-c3ccco3)c2)CC1C(=O)Nc1ccc(Cl)cc1 (centres unmarked) [Example E-008, 1-acetyl-N-(4-chlorophenyl)-4-(3-(furan-2-yl)benzoyl)piperazine-2-carboxamide] |  | 50 µM
10 | O=C(Nc1ccc(Cl)cc1)C1CN(C(=O)c2cccc(-c3ccco3)c2)CCN1C(=O)Nc1ccccc1 (centres unmarked) [Example E-009, N2-(4-chlorophenyl)-4-(3-(furan-2-yl)benzoyl)-N1-phenylpiperazine-1,2-dicarboxamide] |  | 18 µM
11 | CC(C)NC(=O)N1CCN(C(=O)c2cccc(-c3ccco3)c2)CC1C(=O)Nc1ccc(Cl)cc1 (centres unmarked) [Example E-010, N2-(4-chlorophenyl)-4-(3-(furan-2-yl)benzoyl)-N1-isopropylpiperazine-1,2-dicarboxamide] |  | 24 µM
12 | O=C(Nc1ccc(Cl)cc1)C1CN(C(=O)c2cccc(-c3ccco3)c2)CCN1C(=O)NC1CCCC1 (centres unmarked) [Example E-011, N2-(4-chlorophenyl)-N1-cyclopentyl-4-(3-(furan-2-yl)benzoyl)piperazine-1,2-dicarboxamide] |  | 14 µM
13 | C=CCNC(=O)N1CCN(C(=O)c2cccc(-c3ccco3)c2)CC1C(=O)Nc1ccc(Cl)cc1 (centres unmarked) [Example E-012, N1-allyl-N2-(4-chlorophenyl)-4-(3-(furan-2-yl)benzoyl)piperazine-1,2-dicarboxamide] |  | 25 µM
14 | CCCOC(=O)N1CCN(C(=O)c2cccc(-c3ccco3)c2)CC1C(=O)Nc1ccc(Cl)cc1 (centres unmarked) [Example E-013, propyl 2((4-chlorophenyl)carbamoyl)-4-(3-(furan-2-yl)benzoyl)piperazine-1-carboxylate] |  | 18 µM
15 | CCOC(=O)N1CCN(C(=O)c2cccc(-c3ccco3)c2)CC1C(=O)Nc1ccc(Cl)cc1 (centres unmarked) [Example E-014, ethyl 2((4-chlorophenyl)carbamoyl)-4-(3-(furan-2-yl)benzoyl)piperazine-1-carboxylate] |  | 16 µM
16 | O=C(Nc1ccc(Cl)cc1)C1CN(C(=O)c2cccc(-c3ccco3)c2)CCN1C(=O)Oc1ccccc1 (centres unmarked) [Example E-015, phenyl 2((4-chlorophenyl)carbamoyl)-4-(3-(furan-2-yl)benzoyl)piperazine-1-carboxylate] |  | 26 µM
17 | CN1CCN(C(=O)c2cccc(-c3ccco3)c2)CC1C(=O)Nc1ccc(Cl)cc1 (centres unmarked) [Example E-018, N-(4-chlorophenyl)-4-(3-(furan-2-yl)benzoyl)-1-methylpiperazine-2-carboxamide] |  | 8.7 µM

Next, values leading:

Row | IC50 | IC50 (19 h) | SMILES
18 | 0.93 µM |  | COC1CC(C(=O)Nc2ccc(Cl)cc2)CN(C(=O)c2cccc(-c3ccco3)c2)C1 (single isomer, unassigned) [Example E-045, N-(4-chlorophenyl)-1-(3-(furan-2-yl)benzoyl)-5-methoxypiperidine-3-carboxamide]
19 | 2.3 µM |  | COC1CC(C(=O)Nc2ccc(Cl)cc2)CN(C(=O)c2cccc(-c3ccco3)c2)C1 (single isomer, unassigned) [Example E-046, N-(4-chlorophenyl)-1-(3-(furan-2-yl)benzoyl)-5-methoxypiperidine-3-carboxamide]
20 | 18 µM |  | CN(Cc1ccccc1)C1CC(C(=O)Nc2ccc(Cl)cc2)CN(C(=O)c2cccc(-c3ccco3)c2)C1 (single isomer, unassigned) [Example E-060, 5-(benzyl(methyl)amino)-N-(4-chlorophenyl)-1-(3-(furan-2-yl)benzoyl)piperidine-3-carboxamide]
21 | 2.2 µM |  | CC(c1ccc(-n2cccn2)cc1)N1CCCC(C(=O)Nc2ccc(Cl)cc2)C1 (single isomer, unassigned) [Example E-103, 1-(1-(4-(1H-pyrazol-1-yl)phenyl)ethyl)-N-(4-chlorophenyl)piperidine-3-carboxamide]
22 |  | 7.1 µM | O=C(Nc1ccc(Cl)cc1)C1CCCN(C(=O)c2cccc(-c3ccco3)c2)C1 (centres unmarked) [Example E-002, N-(4-chlorophenyl)-1-(3-(furan-2-yl)benzoyl)piperidine-3-carboxamide]
23 |  | 12 µM | CC(C)C(=O)N1CCN(C(=O)c2cccc(-c3ccco3)c2)CC1C(=O)Nc1ccc(Cl)cc1 (centres unmarked) [Example E-006, N-(4-chlorophen)-4-(3-(furan-2-yl)benzoyl)-1-isobutyrylpiperazine-2-carboxamide]
24 |  | 15 µM | COc1ccc(C(=O)N2CCN(C(=O)c3cccc(-c4ccco4)c3)CC2C(=O)Nc2ccc(Cl)cc2)cc1 (centres unmarked) [Example E-007, N-(4-chlorophenyl)-4-(3-(furan-2-yl)benzoyl)-1-(4-methoxybenzoyl)piperazine-2-carboxamide]
25 |  | 16 µM | COCCOC(=O)N1CCN(C(=O)c2cccc(-c3ccco3)c2)CC1C(=O)Nc1ccc(Cl)cc1 (centres unmarked) [Example E-016, 2-methoxyethyl 2((4-chlorophenyl)carbamoyl)-4-(3-(furan-2-yl)benzoyl)piperazine-1-carboxylate]
26 |  | 16 µM | O=C(Nc1ccc(Cl)cc1)C1CN(C(=O)c2cccc(-c3ccco3)c2)CCN1Cc1ccccc1 (centres unmarked) [Example E-017, 1-benzyl-N-(4-chlorophenyl)-4-(3-(furan-2-yl)benzoyl)piperazine-2-carboxamide]
